# pIC50: −log10 of the molar value. Read-outs that look alike come from different tables or passages of the source.
# Assays:
# [1] = target: T1, human α1G T-type channels (Homo sapiens, UniProt O43497); experiment: Block of α1G T-type channels, whole-cell patch clamp in HEK cells; assay type: cell-based
# T1 construct: expressed in transfected cells
# Description: Standard patch-clamp techniques were employed to identify blockers of T-type currents. Briefly, previously described HEK cell lines stably expressing human α1G T-type channels were used for all the recordings (passage #: 4-20, 37° C., 5% CO2). To obtain T-type currents, plastic dishes containing semi-confluent cells were positioned on the stage of a ZEISS AXIOVERT S100 microscope after replacing the culture medium with external solution (see below). Whole-cell patches were obtained using pipettes (borosilicate glass with filament, O.D.: 1.5 mm, I.D.: 0.86 mm, 10 cm length), fabricated on a SUTTER P-97 puller with resistance values of ˜5 MΩ (see below for internal solution).
# In the non-inactivating protocol, the holding potential is set at −110 mV and with a pre-pulse at −100 mV for 1 second prior to the test pulse at −40 mV for 50 ms. […]
# Test compounds were dissolved in external solution, 0.1-0.01% DMSO. After ˜10 min rest, they were applied by gravity close to the cell using a WPI microfil tubing. The “non-inactivated” pre-pulse was used to examine the resting block of a compound. The “inactivated” protocol was employed to study voltage-dependent block. However, the initial data shown below were mainly obtained using the non-inactivated protocol only. IC50 values are shown for various compounds of the invention in Table 6.
# rat formalin model = experiment: Formalin-induced pain model (paw flinches); assay type: in vivo; settings: 30 mg/kg IP, 10 min before formalin, saline control=100%
# Description: The effects of intrathecally delivered compounds of the invention on the rat formalin model were measured. The compounds were reconstituted to stock solutions of approximately 10 mg/ml in propylene glycol. Eight Holtzman male rats of 275-375 g size were randomly selected per test article.
# The following study groups were used, with test article, vehicle control (propylene glycol) and saline delivered intraperitoneally (IP):
# Prior to initiation of drug delivery baseline behavioral and testing data were taken.
# On the morning of testing, a small metal band (0.5 g) was loosely placed around the right hind paw. The rat was placed in a cylindrical Plexiglas chamber for adaptation a minimum of 30 minutes. Test Article or Vehicle Control Article was administered 10 minutes prior to formalin injection (50 μl of 5% formalin) into the dorsal surface of the right hindpaw of the rat. The animal was then placed into the chamber of the automated formalin apparatus where movement of the formalin injected paw was monitored and the number of paw flinches tallied by minute over the next 60 minutes (Malmberg, A. B., et al., Anesthesiology (1993) 79:270-281).
# Results are presented as Maximum Possible Effect±SEM, where saline control=100%.
# [2] = target: T2, rat brain N-type calcium channel subunits (α1B+α2δ+β1b) (Rattus norvegicus, UniProt Q02294); experiment: N-type calcium channel block, whole cell patch clamp in HEK 293 cells; assay type: cell-based; settings: holding −80 mV to +10 mV, 5 mM Ba
# T2 construct: expressed in transfected cells; host or cells: HEK 293
# T2 sequence (Q02294 whole entry): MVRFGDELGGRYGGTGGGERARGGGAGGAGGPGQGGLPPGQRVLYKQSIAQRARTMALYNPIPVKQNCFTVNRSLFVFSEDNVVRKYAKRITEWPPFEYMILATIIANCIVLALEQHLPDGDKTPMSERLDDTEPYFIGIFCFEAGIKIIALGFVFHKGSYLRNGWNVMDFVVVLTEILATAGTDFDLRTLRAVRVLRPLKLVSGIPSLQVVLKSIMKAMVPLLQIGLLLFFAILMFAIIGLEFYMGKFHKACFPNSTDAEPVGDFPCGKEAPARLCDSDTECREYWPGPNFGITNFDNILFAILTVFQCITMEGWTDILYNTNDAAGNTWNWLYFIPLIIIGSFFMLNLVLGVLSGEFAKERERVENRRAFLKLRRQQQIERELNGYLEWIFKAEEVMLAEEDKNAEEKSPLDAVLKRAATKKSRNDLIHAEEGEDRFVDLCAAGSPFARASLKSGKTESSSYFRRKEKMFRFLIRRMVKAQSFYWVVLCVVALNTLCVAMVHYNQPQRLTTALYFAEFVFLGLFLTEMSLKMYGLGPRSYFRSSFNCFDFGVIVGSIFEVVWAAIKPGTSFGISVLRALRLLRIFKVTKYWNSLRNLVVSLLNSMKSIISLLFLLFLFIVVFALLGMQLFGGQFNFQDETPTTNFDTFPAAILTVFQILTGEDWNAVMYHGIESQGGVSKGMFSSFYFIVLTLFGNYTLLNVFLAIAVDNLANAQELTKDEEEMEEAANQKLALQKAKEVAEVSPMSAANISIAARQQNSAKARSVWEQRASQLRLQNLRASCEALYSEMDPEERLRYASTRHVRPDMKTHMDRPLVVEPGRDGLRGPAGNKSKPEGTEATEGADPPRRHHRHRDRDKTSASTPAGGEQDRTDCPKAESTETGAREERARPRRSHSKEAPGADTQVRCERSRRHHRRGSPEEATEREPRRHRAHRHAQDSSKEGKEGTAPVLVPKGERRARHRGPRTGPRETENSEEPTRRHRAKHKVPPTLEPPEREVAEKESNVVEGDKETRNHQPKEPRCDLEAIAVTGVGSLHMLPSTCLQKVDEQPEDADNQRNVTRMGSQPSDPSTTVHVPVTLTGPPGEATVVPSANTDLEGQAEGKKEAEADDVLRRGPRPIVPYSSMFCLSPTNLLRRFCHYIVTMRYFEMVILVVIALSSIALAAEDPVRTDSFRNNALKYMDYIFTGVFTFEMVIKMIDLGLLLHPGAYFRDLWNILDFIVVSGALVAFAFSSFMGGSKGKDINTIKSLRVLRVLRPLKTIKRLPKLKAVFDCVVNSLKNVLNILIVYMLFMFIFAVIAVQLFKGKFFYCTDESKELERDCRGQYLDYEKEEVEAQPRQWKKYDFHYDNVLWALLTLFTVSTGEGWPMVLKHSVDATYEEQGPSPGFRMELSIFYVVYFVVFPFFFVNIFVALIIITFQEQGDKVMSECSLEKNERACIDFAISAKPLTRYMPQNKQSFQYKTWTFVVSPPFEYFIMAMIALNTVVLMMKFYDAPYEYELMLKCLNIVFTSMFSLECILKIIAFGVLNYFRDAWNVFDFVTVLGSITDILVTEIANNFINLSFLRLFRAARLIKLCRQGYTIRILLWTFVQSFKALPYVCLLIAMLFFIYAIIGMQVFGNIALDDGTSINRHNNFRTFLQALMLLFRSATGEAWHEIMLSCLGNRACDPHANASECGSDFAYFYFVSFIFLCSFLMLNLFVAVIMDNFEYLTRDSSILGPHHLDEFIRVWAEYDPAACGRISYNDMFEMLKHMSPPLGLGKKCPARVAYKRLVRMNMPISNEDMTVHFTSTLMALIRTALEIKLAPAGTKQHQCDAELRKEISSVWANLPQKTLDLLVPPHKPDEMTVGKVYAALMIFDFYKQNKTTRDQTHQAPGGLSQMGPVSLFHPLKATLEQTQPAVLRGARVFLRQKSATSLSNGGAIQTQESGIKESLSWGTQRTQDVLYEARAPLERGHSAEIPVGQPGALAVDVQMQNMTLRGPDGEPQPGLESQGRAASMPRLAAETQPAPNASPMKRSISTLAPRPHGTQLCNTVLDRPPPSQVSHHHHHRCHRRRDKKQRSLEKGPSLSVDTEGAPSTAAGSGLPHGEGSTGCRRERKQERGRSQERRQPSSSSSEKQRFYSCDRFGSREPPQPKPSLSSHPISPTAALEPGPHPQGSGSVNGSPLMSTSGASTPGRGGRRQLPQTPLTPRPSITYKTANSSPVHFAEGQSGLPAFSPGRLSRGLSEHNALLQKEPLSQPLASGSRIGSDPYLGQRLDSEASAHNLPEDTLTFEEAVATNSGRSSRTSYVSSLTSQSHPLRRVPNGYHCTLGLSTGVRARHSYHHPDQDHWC
# Description: (§1) Antagonist activity was measured using whole cell patch recordings on human embryonic kidney cells either stably or transiently expressing rat α1B+α2δ+β1b channels (N-type channels) with 5 mM barium as a charge carrier. P/Q-type channels (α1A+α2δ+β1b cDNA subunits) and L-type channels (α1C+α2δ+β1b cDNA subunits) were also transiently expressed in HEK 293 cells.
# For transient expression, host cells, such as human embryonic kidney cells, HEK 293 (ATCC# CRL 1573) were grown in standard DMEM medium supplemented with 2 mM glutamine and 10% fetal bovine serum. HEK 293 cells were transfected by a standard calcium-phosphate-DNA coprecipitation method using the rat α1B+β1b+α2δ N-type calcium channel subunits in a vertebrate expression vector (for example, see Current Protocols in Molecular Biology).
# After an incubation period of from 24 to 72 hrs the culture medium was removed and replaced with external recording solution (see below). Whole cell patch clamp experiments were performed using an Axopatch 200B amplifier (Axon Instruments, Burlingame, Calif.) linked to an IBM compatible personal computer equipped with pCLAMP software. Borosilicate glass patch pipettes (Sutter Instrument Co., Novato, Calif.) were polished (Microforge, Narishige, Japan) to a resistance of about 4 MΩ when filled with cesium methanesulfonate internal solution (composition in MM: 109 CsCH3 SO4, 4 MgCl2, 9 EGTA, 9 HEPES, pH 7.2). Cells were bathed in 5 mM Ba^++ (in mM: 5 BaCl2, 1 MgCl2, 10 HEPES, 40 tetraethylammonium chloride, 10 glucose, 87.5 CsCl pH 7.2). […] Drugs were perfused directly into the vicinity of the cells using a microperfusion system.
# Normalized dose-response curves were fit (Sigmaplot 4.0, SPSS Inc., Chicago, Ill.) by the Hill equation to determine IC50 values. Steady-state inactivation curves were plotted as the normalized test pulse amplitude following 5 s inactivating prepulses at +10 mV increments. Inactivation curves were fit (Sigmaplot 4.0) with the Boltzman equation, Ipeak (normalized)=1/(1+exp((V−Vh)z/25.6)), where V and Vh are the conditioning and half inactivation potentials, respectively, and z is the slope factor.
# N-type calcium channel blocking activity was assayed in human embryonic kidney cells, HEK 293, stably transfected with the rat brain N-type calcium channel subunits (α1B+α2δ+β1b cDNA subunits). Alternatively, N-type calcium channels (α1B+α2δ+β1b cDNA subunits), L-type channels (α1C+α2δ+β1b cDNA subunits) and P/Q-type channels (α1A+α2δ+β1b cDNA subunits) were transiently expressed in HEK 293 cells. Briefly, cells were cultured in Dulbecco's modified eagle medium (DMEM) supplemented with 10% fetal bovine serum, 200 U/ml penicillin and 0.2 mg/ml streptomycin at 37° C. with 5% CO2. At 85% confluency cells were split with 0.25% trypsin/1 mM EDTA and plated at 10% confluency on glass coverslips. At 12 hours the medium was replaced and the cells transiently transfected using a standard calcium phosphate protocol and the appropriate calcium channel cDNA's. Fresh DMEM was supplied and the cells transferred to 28° C./5% CO2. Cells were incubated for 1 to 2 days to whole cell recording.
# Whole cell patch clamp experiments were performed using an Axopatch 200B amplifier (Axon Instruments, Burlingame, Calif.) linked to a personal computer equipped with pCLAMP software. The external and internal recording solutions contained, respectively, 5 mM BaCl2, […], 10 mM HEPES, 40 mM TEACl, 10 mM glucose, 87.5 mM CsCl (pH 7.2) and 108 mM CsMS, 4 mM MgCl2, 9 mM EGTA, 9 mM HEPES (pH 7.2). Currents were typically elicited from a holding potential of −80 mV to +10 mV using Clampex software (Axon Instruments).
# [3] = tested on: P/Q-type channels (α1A+α2δ+β1b); experiment: Selectivity patch clamp, P/Q-type channels transiently expressed in HEK 293 cells; assay type: cell-based; settings: N-type vs P/Q-type
# Description: as §1
# (§2) After an incubation period of from 24 to 72 hrs the culture medium was removed and replaced with external recording solution (see below). Whole cell patch clamp experiments were performed using an Axopatch 200B amplifier (Axon Instruments, Burlingame, Calif.) linked to an IBM compatible personal computer equipped with pCLAMP software. Borosilicate glass patch pipettes (Sutter Instrument Co., Novato, Calif.) were polished (Microforge, Narishige, Japan) to a resistance of about 4 MΩ when filled with cesium methanesulfonate internal solution (composition in MM: 109 CsCH3 SO4, 4 MgCl2, 9 EGTA, 9 HEPES, pH 7.2). Cells were bathed in 5 mM Ba^++ (in mM: 5 BaCl2, 1 MgCl2, 10 HEPES, 40 tetraethylammonium chloride, 10 glucose, 87.5 CsCl pH 7.2). Current data shown were elicited by a train of 100 ms test pulses at 0.066 Hz from −100 mV and/or −80 mV to various potentials (min. −20 mV, max. +30 mV). Drugs were perfused directly into the vicinity of the cells using a microperfusion system. […]
# [4] = tested on: L-type channels (α1C+α2δ+β1b); experiment: Selectivity patch clamp, L-type channels transiently expressed in HEK 293 cells; assay type: cell-based; settings: N-type vs L-type
# Description: as §1, §2
# [5] = inactivation protocol (voltage-dependent block), read-out: IC50 at −80 mV
# [6] = non-inactivating protocol, pre-pulse −100 mV (resting block), read-out: IC50 at −100 mV
# [7] = low frequency stimulation 0.067 Hz (tonic block), read-out: IC50 at 0.067 Hz
# [8] = pulse frequency 0.2 Hz (frequency dependent block), read-out: IC50 at 0.2 Hz
# T1 sequence (O43497 whole entry): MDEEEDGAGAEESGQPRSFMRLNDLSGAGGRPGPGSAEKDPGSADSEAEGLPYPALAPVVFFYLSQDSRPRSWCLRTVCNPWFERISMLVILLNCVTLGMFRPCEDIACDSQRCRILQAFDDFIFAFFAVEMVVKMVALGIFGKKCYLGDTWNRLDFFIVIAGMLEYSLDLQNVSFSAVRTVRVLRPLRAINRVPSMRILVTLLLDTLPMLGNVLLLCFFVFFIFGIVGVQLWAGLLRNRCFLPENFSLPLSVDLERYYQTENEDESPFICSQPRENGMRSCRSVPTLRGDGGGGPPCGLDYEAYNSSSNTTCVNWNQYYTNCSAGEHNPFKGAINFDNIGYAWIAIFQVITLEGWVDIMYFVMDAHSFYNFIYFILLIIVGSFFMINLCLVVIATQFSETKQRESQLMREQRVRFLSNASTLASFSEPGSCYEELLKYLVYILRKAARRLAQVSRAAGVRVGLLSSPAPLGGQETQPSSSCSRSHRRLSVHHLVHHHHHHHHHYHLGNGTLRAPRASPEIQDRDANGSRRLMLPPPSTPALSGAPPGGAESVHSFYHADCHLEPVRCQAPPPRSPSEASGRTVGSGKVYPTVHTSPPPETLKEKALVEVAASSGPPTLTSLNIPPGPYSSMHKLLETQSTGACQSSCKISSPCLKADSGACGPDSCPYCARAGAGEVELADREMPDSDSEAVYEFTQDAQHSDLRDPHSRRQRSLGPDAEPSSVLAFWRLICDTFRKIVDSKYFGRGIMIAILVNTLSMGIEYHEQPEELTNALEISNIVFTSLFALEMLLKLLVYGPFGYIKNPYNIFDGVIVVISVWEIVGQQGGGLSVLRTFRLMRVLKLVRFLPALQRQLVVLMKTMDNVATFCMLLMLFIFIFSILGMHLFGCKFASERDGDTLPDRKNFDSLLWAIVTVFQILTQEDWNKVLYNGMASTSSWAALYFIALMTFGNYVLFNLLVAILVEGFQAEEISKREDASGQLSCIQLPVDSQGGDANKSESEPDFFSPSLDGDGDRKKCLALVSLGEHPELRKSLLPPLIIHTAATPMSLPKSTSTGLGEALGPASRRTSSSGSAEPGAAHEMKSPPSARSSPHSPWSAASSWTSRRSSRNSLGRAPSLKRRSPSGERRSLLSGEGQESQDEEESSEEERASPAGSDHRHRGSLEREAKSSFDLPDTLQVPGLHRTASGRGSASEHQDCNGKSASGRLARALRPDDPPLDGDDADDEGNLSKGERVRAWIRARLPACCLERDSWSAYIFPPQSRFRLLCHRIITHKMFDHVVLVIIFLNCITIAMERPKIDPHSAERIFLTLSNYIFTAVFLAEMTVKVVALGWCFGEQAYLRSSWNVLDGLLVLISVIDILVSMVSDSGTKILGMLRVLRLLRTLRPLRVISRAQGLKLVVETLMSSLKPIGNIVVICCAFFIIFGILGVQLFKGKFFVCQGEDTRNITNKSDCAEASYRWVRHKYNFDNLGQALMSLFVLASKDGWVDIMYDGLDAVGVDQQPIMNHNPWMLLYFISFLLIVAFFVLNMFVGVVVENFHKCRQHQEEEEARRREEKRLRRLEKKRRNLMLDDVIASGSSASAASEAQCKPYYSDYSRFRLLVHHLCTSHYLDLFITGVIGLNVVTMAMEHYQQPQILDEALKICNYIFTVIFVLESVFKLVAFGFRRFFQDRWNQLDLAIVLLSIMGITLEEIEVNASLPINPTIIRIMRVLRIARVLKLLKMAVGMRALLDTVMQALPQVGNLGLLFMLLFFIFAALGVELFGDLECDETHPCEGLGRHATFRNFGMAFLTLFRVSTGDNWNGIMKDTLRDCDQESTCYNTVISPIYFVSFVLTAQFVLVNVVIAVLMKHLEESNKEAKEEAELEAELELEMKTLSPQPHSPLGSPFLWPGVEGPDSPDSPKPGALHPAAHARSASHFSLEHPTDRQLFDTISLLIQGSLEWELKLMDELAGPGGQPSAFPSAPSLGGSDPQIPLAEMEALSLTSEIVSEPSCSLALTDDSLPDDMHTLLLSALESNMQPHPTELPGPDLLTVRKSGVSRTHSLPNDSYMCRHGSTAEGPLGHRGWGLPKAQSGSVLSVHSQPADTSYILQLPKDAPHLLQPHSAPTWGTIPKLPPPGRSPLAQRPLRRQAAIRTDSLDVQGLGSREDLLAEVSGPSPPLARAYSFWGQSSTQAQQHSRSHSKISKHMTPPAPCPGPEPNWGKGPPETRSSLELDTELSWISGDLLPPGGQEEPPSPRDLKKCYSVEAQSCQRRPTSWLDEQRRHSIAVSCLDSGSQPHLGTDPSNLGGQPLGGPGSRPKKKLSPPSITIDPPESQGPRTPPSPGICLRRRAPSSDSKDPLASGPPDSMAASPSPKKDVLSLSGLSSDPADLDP
SMILES,"pIC50 [1, 5]","pIC50 [1, 6]","Maximum Possible Effect ± SEM, Phase I (rat formalin model) [%]","Maximum Possible Effect ± SEM, Phase II (rat formalin model) [%]","Maximum Possible Effect ± SEM, Phase IIA (rat formalin model) [%]","pIC50 [2, 7]",selectivity for N-type over P/Q-type channels [3],selectivity for N-type over L-type channels [4],"pIC50 [2, 8]"
COc1c(C(C)(C)C)cc(C(=O)NCC2CCN(C(=O)CCCCC(c3ccc(F)cc3)c3ccc(F)cc3)C2)cc1C(C)(C)C (centres unmarked) [Compound P13],9.15,8.82,85 ± 9,86 ± 7,86 ± 5,–,–,–,–
CC(C)(C)c1cc(C(=O)NCC2CCN(C(=O)CCCCC(c3ccc(F)cc3)c3ccc(F)cc3)C2)cc(C(C)(C)C)c1 (centres unmarked) [Compound P17],–,7.54,74 ± 8,84 ± 9,79 ± 9,7.22,approximately 31 fold,greater than 75 fold,–
O=C(NCC1CCN(C(=O)CCCCC(c2ccc(F)cc2)c2ccc(F)cc2)C1)c1cc(C(F)(F)F)cc(C(F)(F)F)c1 (centres unmarked) [Compound P24],–,7.92,66 ± 11,38 ± 7,20 ± 4,6.42,–,–,6.68
O=C(NCC1CCN(C(c2ccccc2)c2ccccc2)C1)NC(c1ccccc1)c1ccccc1 (centres unmarked) [Compound P47],8.10,7.62,–,–,–,6.53,–,–,6.73
O=C(NCC1CCN(C(=O)CCCCC(c2ccc(F)cc2)c2ccc(F)cc2)C1)c1cc(C(F)(F)F)cc(C(F)(F)F)c1 (centres unmarked) [Compound P49],8.10,7.74,–,–,–,6.87,–,–,7.05
CN(CC(=O)N(c1ccccc1)c1ccccc1)CC1CCN(C(c2ccccc2)c2ccccc2)C1 (centres unmarked) [Compound P54],7.26,6.82,–,–,–,6.55,–,–,6.62
CN(CCN(c1ccccc1)c1ccccc1)CC1CCN(C(c2ccccc2)c2ccccc2)C1 (centres unmarked) [Compound P55],7.74,7.24,–,–,–,6.49,–,–,6.65
CN(Cc1cc(C(F)(F)F)cc(C(F)(F)F)c1)CC1CCN(C(=O)CCCCC(c2ccc(F)cc2)c2ccc(F)cc2)C1 (centres unmarked) [Compound P57],7.55,6.94,–,–,–,6.65,–,–,7.09
COc1cc(CN(C)CC2CCN(C(=O)CCCCC(c3ccc(F)cc3)c3ccc(F)cc3)C2)cc(OC)c1OC (centres unmarked) [Compound P58],7.24,7.10,–,–,–,6.92,–,–,7.07
c1ccc(C(c2ccccc2)N2CCC(CN(CCN(c3ccccc3)c3ccccc3)CCN(c3ccccc3)c3ccccc3)C2)cc1 (centres unmarked) [Compound P59],5.22,4.40,–,–,–,5.10,–,–,5.70
CN(C(=O)CN(CC(=O)N(C)c1ccccc1)CC1CCN(C(c2ccccc2)c2ccccc2)C1)c1ccccc1 (centres unmarked) [Compound P60],6.64,6.21,–,–,–,7.24,–,–,7.35

# — patent publication US7244758B2, “N-type calcium channel blockers” (Neuromed Pharmaceuticals Ltd., priority 2003, dated 2007)
